The test system of the test is PS1 and PS2 with swapped loop-3. Put plainly: in vitro cleavage assay, AICD production by western blot. Format: biochemical, human. The protocol:
Fig. 4 Thr281 and Leu282 of PS1 determine the isoform selectivity of MRK-560. a–c Individual and double residue swapping of Thr281 and Leu282 in PS1 with the corresponding Pro287 and Ile288 in PS2 alter their respective sensitives to MRK-560 accordingly. IC50 values for MRK-560 inhibition of the indicated PS1 (a) and PS2 (b) mutants were measured using the AlphaLISA assay that detects Aβ40 production. Please refer to Methods for experimental details. Data are presented as mean values ± SD. c Production of AICD by residue-swapped PS1 and PS2 mutants. The amount of AICD generated by the indicated variants in the presence of serial diluted MRK-560 is consistent with the corresponding IC50 shown in (a, b). […] The production of AICD was quantified by ImageJ. Red asterisks indicate the first concentration where the normalized production of AICD was reduced to less than 20%. Source data are provided as a Source Data file. […]
All proteins used for the activity assay were sub-cloned, expressed and purified as described. Protein concentration was determined using the Bradford method. […] The cleaved products of these substrates were detected using a monoclonal antibody (1:1000 dilution, CW0299, CWBio) against the C-terminal Myc tag. Aβ40 production was detected using the AlphaLISA assay (PerkinElmer) as described. The IC50 values and the inhibition curves were calculated using Prism 8.0.

This note sets out measurements from paper PMC9587990, “Molecular basis for isoform-selective inhibition of presenilin-1 by MRK-560” (Nature Communications, 2022).

SMILES strings stand for the structures. Entries after “also recorded” stand apart in the source; their conditions may differ.

For the compound `O=S(=O)(NC1CCC(c2cc(F)ccc2F)(S(=O)(=O)c2ccc(Cl)cc2)CC1)C(F)(F)F` (stereo not drawn) [MRK-560, N-[cis-4-[(4-chlorophenyl)sulfonyl]-4-(2,5-difluorophenyl)cyclohexyl]-1,1,1-trifluoromethanesulfonamide], the “effect of swapping loop-3 between PS1 and PS2 on sensitivity to MRK-560” value is recorded as “little influence on inhibition selectivity; also recorded: no detectable effect on the sensitivity”.
